Source: patent publication US20110263454A1, “Methods of Identifying Functional Characteristics of Promoters, Transcription Modifying Proteins and Transcription Modulating Agents” (Salk Institute for Biological Studies, priority 2008, published 2011)

Legend:
[1] = test system: hCYP3A4 promoter; test: NHR-promoter luciferase screen, hCYP3A4 promoter; format: cell-based, human; details: for Luc. act., normalized to lacZ / Normalized Luc. act., normalized to control: CYP3A4 promoter, HR/ligand component; for hCYP3A4 promoter reporter activity: transcription factor +/- ligand, control = 1.00
Experimental: (§1) Briefly, there were co-expressed 50 ng of each NHR/NHR homodimer or NHR/RXR heterodimer with 100 ng promoter/luciferase construct and 50 ng of LacZ (as a control for transfection efficiency) in CV-1 cells using Fugene HD (Roche) as a transfection reagent (alternatively or additionally, a CMV-YFP construct can be used as a transfection control). Each of the nuclear hormone receptors that were used in these experiments was cloned into a pcDNA3.1 vector and comprised a C-terminally linked V5H6 tag.
(§2) The promoters that facilitate transcription of the indicated gene products that were tested using the protocols described herein are listed in the first row of the table. The nuclear hormone receptors and, where applicable, ligands that were assayed for their transcriptional effects on the promoters are listed in the first column of the table. The data represent the luciferase activity of each sample normalized to both the lacZ activity of that sample and to a control, e.g., no NHR or ligand, as customary in the art. As described previously, these normalizations allow the transcriptional activity of each reporter cell to be compared to other samples.
(§3) Tables 7-40 show the transcriptional effects of the hormone receptors, and, where applicable, ligands (orphan receptors are screened without ligand), on each individual promoter. […] The control data of each table are shown in their last rows.

[2] = test system: mAgrp promoter; test: NHR-promoter luciferase screen, mAgrp promoter; format: cell-based, mouse; details: for Results of assays of transcription factor (+/- ligand) with mAgrp: Table 6d, luciferase activity relative to control (control = 1.00); for Luc. act., normalized to lacZ / Normalized Luc. act., normalized to control: mAgrp promoter, HR component with or without ligand; for Normalized Luc. act., normalized to control: relative to control; for luciferase/LacZ, mAgrp (selected results): mAgrp promoter-luciferase, NHR +/- ligand, control = 1.0
Experimental: (§4) The use, feasibility, and reproducibility of the functional NHR-promoter screen in a 48-well format have been tested validated. Briefly, there were co-expressed 50 ng of each NHR/NHR homodimer or NHR/RXR heterodimer with 100 ng promoter/luciferase construct and 50 ng of LacZ (as a control for transfection efficiency) in CV-1 cells using Fugene HD (Roche) as a transfection reagent (alternatively or additionally, a CMV-YFP construct can be used as a transfection control). Each of the nuclear hormone receptors that were used in these experiments was cloned into a pcDNA3.1 vector and comprised a C-terminally linked V5H6 tag. Twenty-four hours after transfection, appropriate ligands were added, where applicable, (see Table 5 for various ligands and concentrations and after 48 hrs, samples were assayed for luciferase and LacZ activity. To measure for luciferase activity 15 ul of sample was added to 30 ul of luciferase buffer (20 mM tricine, 1.07 mM MgCarbonate, 2.67 mM MgSulfate, 0.1 mM Naz-EDTA, 5 mM DTT, 5 mM ATP, 0.15 mg/ml CoA, 0.5 mM Luciferin), mixed briefly, and run in a Perkin Elmer Victor 5 luminometer. Thus, the functional NHR-promoter screen was used to observe the transcriptional activity of 29 promoters from various physiological pathways including inflammation, lipid and sugar metabolism, cholesterol transport, xenobiotic metabolism, and circadian rhythm.
as §2, §3

[3] = test system: mPgc1b promoter; test: NHR-promoter luciferase screen, mPgc1b promoter; format: cell-based, mouse; details: for Luc. act., normalized to lacZ / Normalized Luc. act., normalized to control: PGC1b promoter reporter, co-transfected HR, without or with its ligand; for Normalized Luc. act., normalized to control: relative to control; for luciferase activity normalized to lacZ activity and to a control, mPgc1b: mPgc1b promoter-luciferase, CV-1 cells, NHR +/- ligand, control = 1.00
Experimental: as §1, §2, §3

[4] = test system: mABCA1 promoter; test: NHR-promoter luciferase screen, mABCA1 promoter; format: cell-based, mouse; details: for Luc. act., normalized to lacZ / Normalized Luc. act., normalized to control: ABCA1 promoter, hormone receptor with or without its ligand; for Normalized Luc. act., normalized to control: relative to control; for mABCA1 promoter reporter activity: transcription factor +/- ligand, control = 1.00
Experimental: as §4, §2, §3

[5] = test system: mGhrelin promoter; test: NHR-promoter luciferase screen, mGhrelin promoter; format: cell-based, mouse; details: for Luc. act., normalized to lacZ / Normalized Luc. act., normalized to control: Table 8, mGhrelin; for Results of assays of transcription factor (+/- ligand) with mGhrelin: Table 6d, luciferase activity relative to control (control = 1.00); for luciferase/LacZ, mGhrelin (selected results): mGhrelin promoter-luciferase, NHR +/- ligand, control = 1.0
Experimental: as §4, §2, §3

| Substance | Luc. act., normalized to lacZ [1] | Normalized Luc. act., normalized to control [1] | hCYP3A4 promoter reporter activity [1] | Results of assays of transcription factor (+/- ligand) with mAgrp [2] | Luc. act., normalized to lacZ [2] | Normalized Luc. act., normalized to control [2] | Luc. act., normalized to lacZ [3] | Normalized Luc. act., normalized to control [3] | luciferase activity normalized to lacZ activity and to a control, mPgc1b [3] | Luc. act., normalized to lacZ [4] | Normalized Luc. act., normalized to control [4] | mABCA1 promoter reporter activity [4] | Luc. act., normalized to lacZ [5] | Normalized Luc. act., normalized to control [5] | Results of assays of transcription factor (+/- ligand) with mGhrelin [5] | luciferase/LacZ, mAgrp (selected results) [2] | luciferase/LacZ, mGhrelin (selected results) [5] |
| --- | --- | --- | --- | --- | --- | --- | --- | --- | --- | --- | --- | --- | --- | --- | --- | --- | --- |
| AR: Androsterone Receptor (NR3C4), cDNA driver | 3.9 | 0.9 | 0.88 | 1.15 | 45.8 | 1.2 | 9.0 | 0.8 | 0.76 | 8.3 | 1.5 | 1.48 | 39.2 | 0.8 | 0.75 |  |  |
| ERR1: Estrogen Related Receptor α (NR3B1, ERRa), cDNA driver | 4.5 | 1.0 | 1.01 | 1.15 | 45.5 | 1.1 | 8.8 | 0.7 | 0.75 | 8.2 | 1.5 | 1.47 | 81.4 | 1.6 | 1.56 |  |  |
| GR: Glucocorticoid Receptor (NR3C1), cDNA driver | 2.0 | 0.5 | 0.45 | 0.55 | 22.0 | 0.6 | 3.2 | 0.3 | 0.27 | 8.5 | 1.5 | 1.52 | 14.3 | 0.3 | 0.27 | 0.6 | 0.3 |
| LXRa: Liver X Receptor α (NR1H3), cDNA driver | 4.1 | 0.9 | 0.93 | 1.58 | 62.5 | 1.6 | 8.40 | 0.7 | 0.71 | 93.0 | 16.6 | 16.56 | 56.7 | 1.1 | 1.08 |  |  |
| NR4a1: NR4a1 (NR4A1; NUR77), nuclear hormone receptor cDNA driver | 6.2 | 1.4 | 1.40 | 1.17 | 46.3 | 1.2 | 17.1 | 1.4 | 1.45 | 11.4 | 2.0 | 2.04 | 54.5 | 1.0 | 1.04 | 1.2 | 1.0 |
| PNR: Photoreceptor-specific Nuclear Receptor (NR2E3), cDNA driver | 2.2 | 0.5 | 0.50 | 0.76 | 30.1 | 0.8 | 4.9 | 0.4 | 0.42 | 9.9 | 1.8 | 1.76 | 32.4 | 0.6 | 0.62 |  |  |
| PPARa: Peroxisome proliferator activated receptor α (NR1C1), cDNA driver | 3.4 | 0.8 | 0.76 | 1.06 | 42.1 | 1.1 | 9.33 | 0.8 | 0.79 | 10.7 | 1.9 | 1.90 | 56.2 | 1.1 | 1.07 |  |  |
| PPARg: Peroxisome proliferator activated receptor γ (NR1C3), cDNA driver | 4.7 | 1.1 | 1.06 | 1.84 | 73.0 | 1.8 | 11.35 | 1.0 | 0.96 | 14.4 | 2.6 | 2.56 | 93.9 | 1.8 | 1.80 | 1.8 | 1.8 |
| RXRa: Retinoic X Receptor α (NR2B1), cDNA driver | 1.5 | 0.3 | 0.35 | 1.17 | 46.4 | 1.2 | 8.6 | 0.7 | 0.72 | 8.7 | 1.6 | 1.56 | 57.4 | 1.1 | 1.10 |  |  |
| SF-1: Steroidogenic Factor 1 (NR5A1, SF1), cDNA driver | 10.6 | 2.4 | 2.39 | 3.58 | 141.9 | 3.6 | 33.2 | 2.8 | 2.80 | 34.4 | 6.1 | 6.12 | 273.2 | 5.2 | 5.23 |  |  |
| TLX: Tailless (homolog of drosophila) (NR2E1), cDNA driver | 4.0 | 0.9 | 0.90 | 0.82 | 32.4 | 0.8 | 4.5 | 0.4 | 0.38 | 21.8 | 3.9 | 3.88 | 86.6 | 1.7 | 1.66 |  |  |
| VDR: Vitamin D Receptor (NR1I1), cDNA driver | 5.1 | 1.2 | 1.15 | 1.14 | 45.3 | 1.1 | 6.85 | 0.6 | 0.58 | 15.2 | 2.7 | 2.71 | 76.6 | 1.5 | 1.47 |  |  |
